Results published in paper PMC8125408, “Polyoxazolines with a Vicinally Double-Bioactivated Terminus for Biomacromolecular Affinity Assessment” (Sensors (Basel, Switzerland), 2021).
Like-named read-outs stand apart in the source and are kept apart here.

What was measured:
Concanavalin A (ConA) [1] = molecular target: T1, Concanavalin A (ConA) (Canavalia ensiformis, UniProt P02866); settings: HBS150T pH 7.4, 25 °C, ConA 118 to […], no aff. = no affinity could be determined
Experimental: Interactions between polymers and Concanavalin A (ConA) were measured by SPR using a […] ®4SPR system (Reichert Technologies). Measurements were performed at 25 °C using HBS150T (10 mM HEPES (pH 7.4), 150 mM NaCl, 3.4 mM EDTA, 0.005% (v/v) Tween 20) as running buffer. For the immobilization of polymers containing a thioether group on the bare gold sensor chip surface, the polymers were injected onto a sensor for 8 min at a flow rate of 10 µL/min to cause polymer coating to a final density of 1000 resonance units. Remaining unspecific protein binding sites on the bare gold surface were saturated by the injection of 500 µM BSA. Purified recombinant ConA was used as an analyte at four concentrations, ranging from 118 to 944 nM. The flowrate for the acquisition of interaction data was set to 25 µL·min^−1 in all experiments. Association was measured for 180 s, then dissociation was initiated by perfusing running buffer, and the dissociation phase was monitored for 300 s. Regeneration of the chip surface was performed by injecting two 60 s pulses of 100 mM glycine (pH 2.5) at a flow rate of 100 µL·min^−1. Interaction data were analyzed using the software TraceDrawer version 1.8.1 (Ridgeview Instruments AB, Uppsala, Sweden), applying a simple Langmuir-type 1:1 interaction model and using global fitting for the rate constants. Association rate constant kon values and dissociation rates constant koff values were obtained by fitting the data of individual experiments. Equilibrium binding KD values were deduced using the equation KD = koff/kon. All SPR experiments were performed in at least three independent experiments.
Preparing the samples is identical to SAW measurements. The SPR measuring channels were coated with polymer solution, and unoccupied gold surface was saturated with BSA.

Concanavalin A (ConA) [2] = molecular target: T1, Concanavalin A (ConA); settings: PBS, 25 °C, four ConA concentrations 118 to […], no aff. = no affinity of the conjugate to the lectin could be determined
Experimental: SAW measurements were performed with apparatus from SAW Instruments GmbH, which included an autosampler and allowed for measuring of protein adsorption and KD value determination. Measurements were performed at 25 °C using PBS as a running buffer. For the immobilization of polymers containing a thioether group on the bare gold sensor chip surface 30 µL of polymers per lane (concentration: 10 µg·mL^−1 in PBS) were preincubated onto the sensor chip for 1 h with an external application mask. Remaining unspecific protein binding sites on the bare gold surface were saturated by the injection of 500 µM BSA. Purified recombinant ConA was used as an analyte at four concentrations, ranging from 118 to 944 nM. The flow rate for the acquisition of interaction data was set to 40 µL·min^−1 in all experiments. Association was measured for 300 s, then dissociation was initiated by perfusing the running buffer, and the dissociation phase was also monitored for 300 s. Regeneration of the chip surface was performed by injection of two 60 s pulses of 100 mM glycine (pH 2.5) at a flow rate of 100 µL·min^−1. Interaction data were analyzed using the FitMaster add-in (SAW Instruments GmbH) of Origin software version 8.5 (OriginLab Corporation), applying a simple Langmuir-type 1:1 interaction model. Association rate constant kon values and dissociation rates constant koff values were obtained by fitting data of individual experiments. Equilibrium binding KD values were deduced using the equation KD = koff/kon. […]
Following the preparation of the gold surface with the polymer conjugates and saturation with BSA, the main measurement can be performed by analyzing the binding affinity of the lectin to the functionalized surface. For this, a constant flow of a series of ConA dilutions with defined concentrations of ConA is injected on each channel and the phase change of surface acoustic waves, which are influenced by binding events, is monitored. […] After measuring four different ConA concentrations, the binding and dissociation curves are fitted and the KD value is calculated.

CGGWYKYW-PMeOx20-SEt
no aff.: SPR KD (Concanavalin A (ConA) [1]; Lane 1 (for III: repeat (1))) | SPR KD (Concanavalin A (ConA) [1]; Lane 2 (for III: repeat (1))) | SPR KD (Concanavalin A (ConA) [1]; Lane 3 (for III: repeat (1))) | SPR KD (Concanavalin A (ConA) [1]; Lane 4 (for III: repeat (1))) | SAW KD (Concanavalin A (ConA) [2]; Lane 1) | SAW KD (Concanavalin A (ConA) [2]; Lane 2) | SAW KD (Concanavalin A (ConA) [2]; Lane 3)
